Entries after “also recorded” stand apart in the source; their conditions may differ.
Columns and labels:
[1] = Water vapor sorption (dynamic vapor adsorption), hygroscopicity; assay type: physicochemical; conditions: adsorption/desorption 5% to 95% relative humidity
Experimental: Water vapor sorption data were collected on a VTI SGA-100 Vapor Sorption Analyzer. Adsorption and desorption data were collected over a range of 5% to 95% relative humidity (RH) at 10% RH intervals under a nitrogen purge. The samples were not dried prior to analyses. Equilibrium criteria used for the analyses were less than 0.0100% weight change in 5 minutes, with a maximum equilibration time of 3 hours if the weight criterion was not met. Data were not corrected for the initial moisture content of the samples. NaCl and PVP were used as calibration standards.

[2] = Solid-state stability by DSC thermogram (storage, wet granulation, direct compression, grinding); assay type: physicochemical; conditions: for stability when stored, in comparison to compound formed from Example 1: storage, ambient temperature and 75% relative humidity (Form III 5 months, Form IV 3 months)
Experimental: Differential scanning calorimetry (DSC) was performed using a TA Instruments differential scanning calorimeter either Q1000 or Q2000. The sample was placed into an aluminum DSC pan, and the weight accurately recorded. The pan was covered with a lid (sometimes the lid was perforated with a (laser) pinhole to allow for pressure release), and then either crimped or hermetically sealed. The sample cell was equilibrated at either 25° C. (Q2000) or 40° C. (Q1000) and heated under a nitrogen purge at a rate of 10° C./min, up to a final temperature of either 180 (Q1000)° C. or 250° C. (Q2000). Indium metal was used as the calibration standard.

[3] = in vivo, US 2007/018505 Example 32; cited from earlier work
[4] = cited from earlier work

| Structure (SMILES) | solid-state stability by DSC thermogram when subjected to direct compression and grinding [2] | solid-state stability by DSC thermogram when subjected to wet granulation [2] | stability when stored, in comparison to compound formed from Example 1 [2] | hygroscopicity by dynamic vapor adsorption [1] | also measured |
| --- | --- | --- | --- | --- | --- |
| O[C@@H]1[C@H](O)[C@@H](CSc2ccccc2F)O[C@H]1n1cnc2c(N[C@@H]3CCC[C@H]3O)ncnc21 [GS-9667, 2-{6-[((1R,2R)-2-hydroxycyclopentyl)amino]purin-9-yl}(4S,5S,2R,3R)-5-[(2-fluorophenylthio)methyl]oxolane-3,4-diol] | – | – | – | – | circulating free fatty acides (FFA) [3]: lowering; insulin sensitivity [3]: improving; serum triglyceride (TG) levels [3]: lowering |
| Nc1ncnc2c1ncn2[C@@H]1O[C@H](CO)[C@@H](O)[C@H]1O [adenosine, Adenosine] | – | – | – | – | half-life [4]: less than 10 seconds |

Continued, in another order:

| solid-state stability by DSC thermogram when subjected to direct compression and grinding [2] | solid-state stability by DSC thermogram when subjected to wet granulation [2] | stability when stored, in comparison to compound formed from Example 1 [2] | Structure (SMILES) | hygroscopicity by dynamic vapor adsorption [1] | also measured |
| --- | --- | --- | --- | --- | --- |
| DSC thermogram change and instability | DSC thermogram change and instability | – | O[C@@H]1[C@H](O)[C@@H](CSc2ccccc2F)O[C@H]1n1cnc2c(N[C@@H]3CCC[C@H]3O)ncnc21 [Example 1, 2-{6-[((1R,2R)-2-hydroxycyclopentyl)amino]purin-9-yl}(4S,5S,2R,3R)-5-[(2-fluorophenylthio)methyl]oxolane-3,4-diol] | high hygroscopicity | DSC thermogram upon storage ([2]; storage at 40° C. and 75% relative humidity for 2 months): DSC thermogram change |
| not affected | not affected | enhanced stability | O[C@@H]1[C@H](O)[C@@H](CSc2ccccc2F)O[C@H]1n1cnc2c(N[C@@H]3CCC[C@H]3O)ncnc21 [Form III, 2-{6-[((1R,2R)-2-hydroxycyclopentyl)amino]purin-9-yl}(4S,5S,2R,3R)-5-[(2-fluorophenylthio)methyl]oxolane-3,4-diol] | non-hygroscopic; also recorded: not hygroscopic | stability to moisture, mechanical stress, pharmaceutical processing, and temperature changes, relative to other crystalline forms ([2]; general statement): superior |
| – | – | enhanced stability | O[C@@H]1[C@H](O)[C@@H](CSc2ccccc2F)O[C@H]1n1cnc2c(N[C@@H]3CCC[C@H]3O)ncnc21 [Form IV, 2-{6-[((1R,2R)-2-hydroxycyclopentyl)amino]purin-9-yl}(4S,5S,2R,3R)-5-[(2-fluorophenylthio)methyl]oxolane-3,4-diol] | non-hygroscopic; also recorded: not hygroscopic | – |

From patent publication US20110039799A1, “A1 ADENOSINE RECEPTOR AGONIST POLYMORPHS” (Gilead Palo Alto, Inc., priority 2009, published 2011)
